Source: patent US6316033A, “Compositions for treatment of antibiotic-resistant gram-positive bacterial infections and methods for using and preparing the same” (Marco Polo Technologies, priority 1999, dated 2001)
In brackets after ≈: the same amount, converted by molar mass. Like-named read-outs stand apart in the source and are kept apart here. Values belong to the compound of their own block, whether it stands above or below them.

What was measured:
[1] = literature (Tanaka et al; Kyogoku et al; Honda et al); cited from earlier work
[2] = test system: wild-type Staphylococcus aureus; assay: Minimum inhibitory concentration in liquid culture, wild-type strain; format: cell-based
Description: (§1) Next, the MIC for the total organic solvent extract from A. euchroma, obtained as described in Example 1 above, against wild-type Staphylococcus aureus and antibiotic-resistant Staphylococcus aureus were determined in liquid culture using L-broth with different amounts of total organic solvent extract, and compared to the MIC for common antibiotics.
(§2) More specifically, different concentrations of total organic solvent extract was added to 1.0 ml of L-broth, and inoculated with 50 μl of an overnight growth of bacteria (about 1.0×10^8 cells). The resulting samples were incubated overnight at 37° C. The MIC was then determined by measuring the minimal concentration of extract needed to inhibit the growth of the bacteria.
The MIC of the six individual components were determined using wild-type S. aureus and the liquid culture method as described above.

[3] = literature (Tanaka et al, 1986); cited from earlier work
[4] = test system: wild-type Staphylococcus aureus (ATCC 29212); assay: Disk sensitivity assay, wild-type S. aureus; format: cell-based; details: for zone of inhibition at 2000 µg/mL: Staphylococcus aureus, ATCC29212, 18 h
Description: The antimicrobial activities of the total organic solvent extract from A. euchroma, obtained as described in Example 1 above, and the red colored active fraction from A. euchroma, obtained as described in Example 2 above, were evaluated using a disk sensitivity assay.
(§3) More specifically, wild-type Staphylococcus aureus (ATCC 29212) was grown in Luria broth (L-broth) at 37° C. to exponential phase, diluted to 1.0×10^7 bacteria/ml, and mixed with minimal medium (M63, +salt and glucose) with 0.15% (w/v) soft agar. The mixture was poured over a minimal agar plate (minimal medium +0.7% (w/v) agar). Filter paper disks (6.0 mm in diameter) were then impregnated with 20 μl of total organic solvent extract from A. euchroma (containing 10 mg/ml of naphthaquinone compounds in dimethyl formamide (DMF)); 20 μl of total organic solvent extract from L. erythrorhizon (containing 10 mg/ml of naphthaquinone compounds in DMF); 20 μl of the red colored active fraction from A. euchroma isolated using TLC (10 mg/ml in DMF); 20 μl of the red colored active fraction from A. euchroma isolated using the silica gel column (10 mg/ml in DMF); or 20 μl of DMF as control, and placed on the surface of the agar plates. The plates were then incubated at 37° C. for 18 hrs.
(§4) The disk assay described above was carried out on wild-type S. aureus and antibiotic-resistant S. aureus using 20 μl of the red colored active fraction from A. euchroma isolated using TLC (10 mg/ml in DMF); 20 μl of the red colored active fraction from A. euchroma isolated using the silica gel column (10 mg/ml in DMF); or 20 μl of DMF as a control.
(§5) The anti-microbial activities of the 6 individual components were determined using the disk sensitivity assay described above.
(§6) More specifically, filter paper disks impregnated with 20 μl of each individual component (2.0 mg/ml) were placed on top of the agar plate. The plates were developed as described in Example 4 above.

[5] = test system: antibiotic-resistant Staphylococcus aureus (ATCC 27695); assay: Disk sensitivity assay, antibiotic-resistant S. aureus; format: cell-based; details: for zone of inhibition at 2000 µg/mL: Staphylococcus aureus, ATCC27695, 18 h
Description: as §3
The disk assay described above was carried out using antibiotic-resistant Staphylococcus aureus (ATCC 27695), and 20 μl of the total organic solvent extract from A. euchroma (containing 10 mg/ml of naphthaquinone compounds in DMF); 20 μl of the total organic solvent extract from L. erythrorhizon (containing 10 mg/ml of naphthaquinone compounds in DMF); or 20 μl of DMF as a control.
as §4, §5, §6

[6] = test system: antibiotic-resistant Staphylococcus aureus clinical isolates; assay: Antibiotic resistance (MIC) of S. aureus clinical isolates; format: cell-based
[7] = test system: antibiotic-resistant Staphylococcus aureus; assay: Minimum inhibitory concentration in liquid culture, antibiotic-resistant strain; format: cell-based; details: read-out: Minimum Inhibitory Concentration (MIC)
Description: as §1, §2

[8] = wild-type S. aureus, liquid culture, Table 10
[9] = Wild-Type Strain, individual components, 20 μl of 2.0 mg/ml, Table 9
[10] = Antibiotic-resistant Strain, individual components, 20 μl of 2.0 mg/ml, Table 9
[11] = Staphylococcus aureus, read-out: Minimum Inhibitory Concentration (MIC)
[12] = read-out: Antibiotic Resistance (MIC), Strain 3-44
[13] = Strain 3-16, read-out: Antibiotic Resistance (MIC)
[14] = Strain 3-20, read-out: Antibiotic Resistance (MIC)
[15] = Strain 5-37, read-out: Antibiotic Resistance (MIC)
[16] = Strain 5-38, read-out: Antibiotic Resistance (MIC)
[17] = Strain 5-39, read-out: Antibiotic Resistance (MIC)
[18] = Strain 5-47, read-out: Antibiotic Resistance (MIC)
[19] = Staphylococcus aureus, wild-type S. aureus, liquid culture, Table 10, read-out: MIC
[20] = Wild-Type Strain, individual components, 20 μl of 2.0 mg/ml, Table 9, read-out: Zone of inhibition
[21] = Antibiotic-resistant Strain, individual components, 20 μl of 2.0 mg/ml, Table 9, read-out: Zone of inhibition

Compound: CC(C)=CC[C@@H](O)C1=CC(=O)c2c(O)ccc(O)c2C1=O (single isomer, unassigned) [Peak I, Shikonin]
antimicrobial activity [1]: antimicrobial activity
MIC ([2]; Staphylococcus aureus): 4 to 5 mg/L (≈ 13.9 to 17.3 µM)
anti-inflammatory activity [3]: anti-inflammatory activity
zone of inhibition at 2000 µg/mL [4]: 18 mm
appearance of zone of inhibition ([4]; wild-type S. aureus, individual components, 2.0 mg/ml): the inhibition was not complete, as shown by an opaque, rather than a clear zone
zone of inhibition at 2000 µg/mL [5]: 18 mm
appearance of zone of inhibition ([5]; antibiotic-resistant S. aureus, individual components, 2.0 mg/ml): the inhibition was not complete, as shown by an opaque, rather than a clear zone

Compound: CC(=O)O[C@H](CC=C(C)C)C1=CC(=O)c2c(O)ccc(O)c2C1=O (single isomer, unassigned) [Peak II, Acetyl shikonin]
MIC ([2]; Staphylococcus aureus): 0.5 to 1 mg/L (≈ 1.51 to 3.03 µM)
activity ranking among the individual components (MIC) [2, 8]: the most active
zone of inhibition at 2000 µg/mL [4]: 10 mm
zone of inhibition at 2000 µg/mL [5]: 17 mm

Compound: CC(C)=CC[C@@H](OC(=O)CC(C)=C(C)C)C1=CC(=O)c2c(O)ccc(O)c2C1=O (single isomer, unassigned; peak iii) [Peak III, Teracryl shikonin]
MIC [2, 8]: 4.0 to 6.0 mg/L
Zone of inhibition [4, 9]: 7.5 mm
Zone of inhibition [5, 10]: 7.0 mm

Compound: CC(C)=CC[C@@H](OC(=O)CC(C)(C)O)C1=CC(=O)c2c(O)ccc(O)c2C1=O (single isomer, unassigned; peak iv) [Peak IV, Hydroxyisovaleryl shikonin]
MIC [2, 8]: 4.0 to 6.0 mg/L
Zone of inhibition [4, 9]: 7.0 mm
Zone of inhibition [5, 10]: 7.0 mm

Compound: CC[C@H]1OC(=O)[C@H](C)[C@@H](O[C@H]2C[C@@](C)(OC)[C@@H](O)[C@H](C)O2)[C@H](C)[C@@H](O[C@@H]2O[C@H](C)C[C@H](N(C)C)[C@H]2O)[C@](C)(O)C[C@@H](C)C(=O)[C@H](C)[C@@H](O)[C@]1(C)O [Erythromycin]
MIC [2, 11]: < 1 mg/L
MIC [6, 12]: > 32 mg/L
MIC ([6]; read-out: Antibiotic Resistance (MIC), Strain 5-75): > 32 mg/L
MIC ([6]; read-out: Antibiotic Resistance (MIC), Strain 5-76): > 32 mg/L
MIC ([6]; read-out: Antibiotic Resistance (MIC), Strain 5-77): > 32 mg/L
MIC ([6]; read-out: Antibiotic Resistance (MIC), Strain 5-78): 4 mg/L (≈ 5.45 µM)
MIC [7]: > 20 mg/L

MIC [6, 13]: 32 mg/L (≈ 84.1 µM)
MIC [6, 14]: 128 mg/L (≈ 336 µM)
MIC [6, 15]: > 128 mg/L
MIC [6, 16]: 32 mg/L (≈ 84.1 µM)
MIC [6, 17]: 128 mg/L (≈ 336 µM)
MIC [6, 18]: > 128 mg/L
Compound: COc1cccc(OC)c1C(=O)N[C@@H]1C(=O)N2[C@@H]1SC(C)(C)[C@@H]2C(=O)O [Methicillin]

Compound: CO[C@@H]1[C@@H](OC(N)=O)[C@@H](O)[C@H](Oc2ccc3c(O)c(NC(=O)c4ccc(O)c(CC=C(C)C)c4)c(=O)oc3c2C)OC1(C)C [Novobiocin]
MIC [2, 11]: < 2 mg/L
MIC [7]: > 20 mg/L

MIC [2, 19]: 2 to 4 mg/L (≈ 5.58 to 11.2 µM)
Compound: CC(C)=CC[C@@H](OC(=O)C(C)C)C1=CC(=O)c2c(O)ccc(O)c2C1=O [Peak V, Isobutyl shikonin]
zone of inhibition at 2000 µg/mL [4, 20]: 7 mm
zone of inhibition at 2000 µg/mL [5, 21]: 7 mm

Compound: CC(C)=CCC(OC(=O)C=C(C)C)C1=CC(=O)c2c(O)ccc(O)c2C1=O (stereo not drawn) [Peak VI, β, β-dimethylacryl shikonin]
MIC [2, 19]: < 2 mg/L
activity ranking among the individual components (MIC) [2, 8]: the most active
zone of inhibition at 2000 µg/mL [4, 20]: 7 mm
zone of inhibition at 2000 µg/mL [5, 21]: 7 mm

Compound: CC1(C)S[C@@H]2[C@H](NC(=O)Cc3ccccc3)C(=O)N2[C@H]1C(=O)O [Penicillin G]
MIC ([6]; read-out: Antibiotic Resistance (MIC), Strain 6515): > 20 mg/L

MIC [6, 13]: 32 mg/L (≈ 61.8 µM)
MIC [6, 14]: 128 mg/L (≈ 247 µM)
MIC ([6]; Strain 4-15, read-out: Antibiotic Resistance (MIC)): 32 mg/L (≈ 61.8 µM)
MIC ([6]; Strain 4-44, read-out: Antibiotic Resistance (MIC)): > 128 mg/L
MIC ([6]; Strain 4-50, read-out: Antibiotic Resistance (MIC)): 32 mg/L (≈ 61.8 µM)
MIC [6, 15]: > 128 mg/L
MIC [6, 16]: 32 mg/L (≈ 61.8 µM)
MIC [6, 17]: 128 mg/L (≈ 247 µM)
MIC [6, 18]: > 128 mg/L
Compound: CCN1CCN(C(=O)N[C@@H](C(=O)N[C@@H]2C(=O)N3[C@@H]2SC(C)(C)[C@@H]3C(=O)O)c2ccccc2)C(=O)C1=O [Piperacillin]

Compound: CN(C)C1C(=O)C(C(N)=O)=C(O)C2(O)C(=O)C3=C(O)c4c(O)cccc4C(C)(O)C3CC12 (stereo not shown) [Tetracycline]
MIC [2, 11]: 1 to 2 mg/L (≈ 2.25 to 4.5 µM)
MIC [6, 12]: > 32 mg/L
MIC ([6]; read-out: Antibiotic Resistance (MIC), Strain 1206): > 32 mg/L
MIC [7]: > 20 mg/L

Compound: CC(C)=CCCC1=CC(=O)c2c(O)ccc(O)c2C1=O [deoxyshikonin]
antimicrobial activity [1]: antimicrobial activity
anti-inflammatory activity [3]: anti-inflammatory activity
